Assay results as given in patent US7081568B2, “Transgenic plants expressing temporin peptides” (University of Victoria Innovation and Development …, priority 1999, dated 2006).
Where no end group is shown, it is not given here.

Assays:
Erwinia carotovora = assay: Bactericidal effect of antimicrobial peptides in microtiter plates, colony count; type: cell-based; conditions: approximately 1×10^5 bacteria/ml, 4 hours at room temperature, plated on LB, FIG. 3
Procedure: (§1) The cell cultures were incubated at room temperature in the presence of indicated concentration of Dermaseptin B (DSB; 23 μg/ml, 45 μg/ml) or Temporin A (TA; 67 μg/ml, 133 μg/ml) for 4 hours, diluted and plated on LB plates. After overnight incubation at 28° C., the colonies were counted and the survival of bacteria was scored.
(§2) Bactericidal effects of antimicrobial peptides (SEQ ID NO: 34 (MRSA3) and SEQ ID NO: 28 (MRSA2)) were determined against Escherichia coli (FIG. 2) and Erwinia carolovora (FIG. 3) in microtiter plates in a final volume of 220 μl containing approximately 1×10^5 bacteria/ml and indicated concentration of antimicrobial peptides. The cell cultures were incubated at room temperature for 4 hours, diluted and plated on LB plates. After overnight incubation at 37° C. (E. coli) or 28° C. (E. carotovora) the colonies were counted and the survival of bacteria was scored.

Escherichia coli = assay: as above; type: cell-based; conditions: approximately 1×10^5 bacteria/ml, 4 hours at room temperature, plated on LB, FIG. 2
Procedure: as §1, with “7” for “23”, “30 μg/ml, and 75 μg/ml),” for “45 μg/ml) or”, “75” for “67”, “133 μg/ml, 200” for “133”, “μg/ml) and a combination of Temporin A and Dermaseptin B (133 μg/ml Temporin A and 30 μg/ml Dermaseptin B)” for “μg/ml)”, “37°” for “28°”
as §2

Substance	bactericidal effect, survival of bacteria (Erwinia carotovora)	bactericidal effect, survival of bacteria (Escherichia coli)
MRSA3: mature 13 amino acid form of temporin A with a 6 amino acid N-terminal extension MASRHM; called Temporin A in figure legends (MASRHMFLPLIGRVLSGIL; ends and bridges not checked; listed as Rana temporaria)	significant antimicrobial activity	significant antimicrobial activity
MRSA2: mature 27 amino acid form of dermaseptin b with a 5 amino acid N-terminal extension MAMWK; called Dermaseptin B in figure legends (MAMWKDVLKKIGTVALHAGKAALGAVADTISQ; ends and bridges not checked)	significant antimicrobial activity	significant antimicrobial activity
